Results from patent US4362728A, “Haloguanidine compounds, pharmaceutical compositions and methods of use” (ICI Americas Inc., priority 1979, dated 1982).

Tested on: male Swiss-Webster mice
Assay: intraperitoneal toxicity observation in mice
Assay type: in vivo
Details: 50 mg./kg. intraperitoneal in 10% w/v dimethylsulphoxide in saline; observed four hours and checked 24 hours after dosing

Row | Compound | toxic symptoms
1 | CNC(=C[N+](=O)[O-])NCCCCc1csc(N=C(N)NCC(F)(F)F)n1 [Example 9] | No toxic symptoms
2 | CNC(=NS(C)(=O)=O)NCCCCc1csc(NC(N)=NCC(F)(F)F)n1 [Example 11, 2-[2-(2,2,2-trifluoroethyl)guanidino]-4-[4-(2-methylsulphonyl-3-methylguanidino)butyl]thiazole] | No toxic symptoms
